Experimental data reported in the NIST ThermoML archive (doi:10.1016/j.jct.2008.12.018).
± gives the expanded uncertainty stated by the source.

Experiment: activity coefficient (dimensionless); of the first substance listed, at infinite dilution; xn = mol fraction of the nth substance listed
Details: Liquid, Chromatography, x1 = 0

Cc1cccc(C)c1 [1,3-dimethylbenzene] + CCCCn1cc[n+](C)c1.N#C[S-]
Details	activity coefficient
298.15 K	5.92 ± 0.4
308.15 K	5.91 ± 0.4
318.15 K	5.98 ± 0.41
328.15 K	5.96 ± 0.41
338.15 K	5.96 ± 0.41
348.15 K	5.97 ± 0.41
358.15 K	5.99 ± 0.41
368.15 K	5.96 ± 0.41
